Counter-ions that a name gives are not always drawn.
System: anaphylactic asthma in guinea-pigs
Assay: Antagonism to anaphylactic asthma in guinea-pigs (passively sensitized with rabbit anti-egg albumin antiserum, egg albumin aerosol challenge; survival)
Format: in vivo, guinea-pig (male Hartley strain)
Conditions: 10 mg/kg, oral, 30 minutes before egg albumin aerosol challenge; dose group 3 or 5 animals (* = 3 guinea-pigs: Examples 10-(5) and 11)
Method: Equal volumes of a saline solution of egg albumin (200 mg/ml) and of Freund's Complete Adjuvant were mixed and emulsified. Each male New Zealand white strain rabbits, each weighing 2 to 2.5 kg., received an intramuscular injection of 0.5 ml of the emulsion in the left and right thigh regions. One week later, they received an intradermal injection of 0.25 ml of a saline solution of egg albumin (concentration: 20 mg/ml) in the different four sites of the dorsal skin surface three times every other week. Blood samples were collected from the carotid artery one week after the last injection.
The level of anaphylactic anti-egg albumin antibodies in pools of sera were determined by passive cutaneous anaphylaxis (PCA) reactions using shaven Hartley strain test guinea-pigs.
Antiserum was serially diluted (two fold) in saline and 0.1 ml of each antiserum dilution were injected intradermally into the dorsal skin surface of the test guinea-pigs. 24 hours after intradermal sensitization,Egg albumin-specific PCA reactions were elicited by intravenous injection of 10 mg of egg albumin in 1 ml of 1% Evans blue dye dissolved in saline. Reactions were read and recorded as the highest dilution of serum evoking threshold PCA reactivity (5 mm diameter).
Male Hartley strain guinea-pigs, weighing 305 to 400 g, were used. Animals were sensitized by an intravenous injection of rabbit antiserum against egg albumin (4000 PCA titer) with 0.5 ml/animal. After 24 hours, animals were placed individually in a plastic chamber of 5.3 liter volume. An aerosol of 5% egg albumin solution was sprayed in the chamber at a rate of 0.16 ml/min with a commercial nebulizer. The test compounds were given to the animals orally 30 minutes before the challenge with the egg albumin solution. Each dose group consisted of 3 or 5 animals. The inhibitory effect of the test compounds was determined from the number of surviving animals more than 2 hours after spray of the antigen.

With `Cl.Cl.O=C(NCCCN1CCN(C(c2ccccc2)c2ccccc2)CC1)c1ccccc1` [Example 7, 1-(3-benzoylaminopropyl)-4-benzhydrylpiperazine dihydrochloride] the “Inhibitory effect of anaphylactic asthma in guinea-pig (from number of surviving animals more than 2 hours after spray of the antigen)” value (“Inhibitory effect of anaphylactic asthma” below) was 100%.

`CS(=O)(=O)Nc1cccc(CN2CCN(C(c3ccccc3)c3ccccc3)CC2)n1.Cl.Cl` [Example 13, 1-(6-methanesulfonylaminopyridin-2-ylmethyl)-4-benzhydrylpiperazine dihydrochloride] was tested, and the “Inhibitory effect of anaphylactic asthma” value was 100%.

In the case of `CS(=O)(=O)Nc1ccccc1C(=O)NCCCN1CCN(C(c2ccccc2)c2ccccc2)CC1` [Example 10-(5), 1-[3-(2-Methanesulfonylaminobenzoylamino)propyl]-4-benzhydrylpiperazinedihydrochloride], the “Inhibitory effect of anaphylactic asthma” value is reported as 100%.

In the case of `O=C(Cn1c(=O)sc2ccccc21)NCCCN1CCN(C(c2ccccc2)c2ccccc2)CC1` [Example 10-(8), 1-[3-[2-(2-Oxo-benzothiazolin-3-yl)acetylamino]propyl]-4-benzhydrylpiperazine], the “Inhibitory effect of anaphylactic asthma” value is reported as 80%.

With `COc1ccccc1C(=O)NCCCN1CCN(C(c2ccccc2)c2ccccc2)CC1.Cl.Cl` [Example 10-(2), 1-[3-(2-Methoxybenzoylamino)propyl]-4-benzhydrylpiperazine dihydrochloride] the “Inhibitory effect of anaphylactic asthma” value was 80%.

`CC(=O)CCCN1CCN(C(c2ccccc2)c2ccccc2)CC1.O=C(O)/C=C/C(=O)O` [Example 1, 1-(4-oxo-1-pentyl)-4-benzhydrylpiperazine fumarate] was tested, and the “Inhibitory effect of anaphylactic asthma” value was 100%.

`CC(=O)NCCCN1CCN(C(c2ccccc2)c2ccccc2)CC1` [Example 11, 1-(3-acetylaminopropyl)-4-benzhydrylpiperazine] was tested, and the “Inhibitory effect of anaphylactic asthma” value was 100%.

Reference: patent US4591590A, “Benzhydrylpiperazine derivatives, processes for the preparation thereof and pharmaceutical composition comprising the same” (Fujisawa Pharmaceutical Co., Ltd., priority 1982, dated 1986)
